Measured values taken from article PMC8067632, “Assessment and Development of the Antifungal Agent Caspofungin for Aerosolized Pulmonary Delivery” (Pharmaceutics, 2021).

Columns and labels:
Format in all cases: cell-based
[1] = test system: Trichophyton rubrum ATCC 10218; experiment: Broth microdilution MEC; details: CLSI broth microdilution, microscopy, duplicate
Procedure: (§1) Antifungal potency of the test article(s) was measured using the in vitro broth microdilution assay under test conditions described by the Clinical and Laboratory Standards Institute. Minimum Inhibitory Concentration (MIC) is defined as the lowest concentration of an agent that causes a specified reduction in visible growth of the microorganism. Minimum Effective Concentration (MEC) is defined as the lowest concentration of an agent that leads to the growth of small, rounded, compact hyphal forms, as compared to the hyphal growth typically seen in the growth control well. MIC values were determined for 9 Candida spp., and MEC values were determined for filamentous fungus species (Aspergillus fumigatus and Trichophyton rubrum). Details of the test article preparations and methodologies are described in Supplementary Material S1.
(§2) Following incubation, the test plates were visually examined and wells were scored for growth or complete growth inhibition to define the MIC values. Microscopy examination was used to determine the MEC values. Each test substance was evaluated in duplicate and the results are the duplicate test values. Vehicle-control and an active reference agent were used as blank and positive controls, respectively. […]
(§3) S1. In Vitro Testing, Test Article Preparations
(§4) The 5 mg/mL stock solution was prepared as the following. The refrigerated vial was equilibrated to room temperature. Test vial was reconstituted aseptically with 10.5 mL 0.9% NaCl. The powder was dissolved completely, mixing until a clear solution was ob-tained. The final concentration was 5.0 mg/mL of caspofungin freebase. The reconstituted solution was stable for 1 hr at room temperature. The 5 mg/mL stock solution was then […]
(§5) The refrigerated vial was equilibrated to room temperature. The powder was dis-solved completely, mixing until a clear solution was obtained. Test vial was reconstituted aseptically with 1.8 mL 0.9% NaCl. The white to off-white powder was dissolved com-pletely, mixing gently until a clear solution was obtained. The final concentration was 5.0 mg/mL of caspofungin freebase. The reconstituted solution was used within 1 hr at room temperature. The 5 mg/mL stock solution was then diluted with 0.9% NaCl to prepare the […]
(§6) 1.3. Caspofungin Diacetate
(§7) The 5 mg/mL API stock solution was prepared as the following. The refrigerated vial was equilibrated to room temperature. Test vial was filled aseptically with 1.8 mL 0.9%
(§8) NaCl. The powder was dissolved completely, mixing until a clear solution was obtained.
(§9) The final concentration was 5.0 mg/mL of caspofungin freebase. The reconstituted solu-tion was used within 1 hr at room temperature. The 5 mg/mL stock solution was then […]
(§10) g compound, corresponding to 1.2 mg active compound with a correction factor of 2.40 was added 0.375 mL of water for injection to generate the 3.2 mg/mL working stock solution for testing. The 3.2 mg/mL working stock solution was 2-fold diluted seri-ally in 0.9% NaCl to prepare a total of eleven 50-fold stock solutions, concentrations rang-ing from 3.2 to 0.003 mg/mL. A 4 μL aliquot of each dilution was added to 196 μL of broth medium seeded with the organism suspension in wells of a 96 well plate (fungal cell count: 1 x 10^3 to 1 x 10^4 colony forming units per mL). The final volume was 200 μL in each […]

[2] = test system: Aspergillus fumigatus ATCC 13073; experiment: Broth microdilution MEC; details: CLSI broth microdilution, microscopy, duplicate
Procedure: as §1, §2, §3, §4, §5, §6, §7, §8, §9, §10

[3] = test system: Aspergillus fumigatus ATCC204305; experiment: Broth microdilution MEC; details: CLSI broth microdilution, microscopy, duplicate
Procedure: as §1, §2, §3, §4, §5, §6, §7, §8, §9, §10

[4] = test system: Candida albicans ATCC44858; experiment: microbe, parasite or virus in culture; details: Candida albicans, ATCC44858; CLSI broth microdilution, visual, duplicate; read-out: MIC
Procedure: as §1, §2, §3, §4, §5, §6, §7, §8, §9, §10

[5] = test system: Candida tropicalis ATCC 200956; experiment: microbe, parasite or virus in culture; details: Candida tropicalis, ATCC200956; CLSI broth microdilution, duplicate; read-out: MIC
Procedure: as §1, §2, §3, §4, §5, §6, §7, §8, §9, §10

[6] = test system: Candida albicans Azole-R (20183.073); experiment: microbe, parasite or virus in culture; details: Candida albicans; CLSI broth microdilution, azole-resistant strain, duplicate; read-out: MIC
Procedure: as §1, §2, §3, §4, §5, §6, §7, §8, §9, §10

[7] = test system: Candida albicans Azole-R (20186.025); experiment: microbe, parasite or virus in culture; details: Candida albicans
Procedure: as §1, §2, §3, §4, §5, §6, §7, §8, §9, §10

[8] = test system: Candida albicans ATCC90028 + 50%human serum; experiment: microbe, parasite or virus in culture; details: Candida albicans, ATCC90028, CLSI broth microdilution, duplicate, read-out: MIC
Procedure: as §1, §2, §3, §4, §5, §6, §7, §8, §9, §10

[9] = test system: Candida albicans ATCC90028; experiment: microbe, parasite or virus in culture; details: Candida albicans, ATCC90028; CLSI broth microdilution, visual, duplicate; read-out: MIC
Procedure: as §1, §2, §3, §4, §5, §6, §7, §8, §9, §10

[10] = test system: Candida glabrata ATCC 36583; experiment: microbe, parasite or virus in culture; details: Nakaseomyces glabratus, ATCC36583; CLSI broth microdilution, duplicate; read-out: MIC
Procedure: as §1, §2, §3, §4, §5, §6, §7, §8, §9, §10

[11] = test system: Candida krusei ATCC 6258; experiment: microbe, parasite or virus in culture; details: Pichia kudriavzevii, ATCC6258; CLSI broth microdilution, duplicate; read-out: MIC
Procedure: as §1, §2, §3, §4, §5, §6, §7, §8, §9, §10

[12] = test system: Candida parapsilosis ATCC 22019; experiment: microbe, parasite or virus in culture; details: Lodderomyces parapsilosis, ATCC22019; CLSI broth microdilution, duplicate; read-out: MIC
Procedure: as §1, §2, §3, §4, §5, §6, §7, §8, §9, §10

C[C@@H]1[C@H](O)[C@@H](C)/C=C/C=C/C=C/C=C/C=C/C=C/C=C/[C@H](O[C@@H]2O[C@H](C)[C@@H](O)[C@H](N)[C@@H]2O)C[C@@H]2O[C@](O)(C[C@@H](O)C[C@@H](O)[C@H](O)CC[C@@H](O)C[C@@H](O)CC(=O)O[C@H]1C)C[C@H](O)[C@H]2C(=O)O [Amphotericin B]
0.25 µg/mL: MEC [2] | MIC [7] | MIC [8] | MIC [11] | MIC [12]
1 µg/mL: MIC [5]
0.125 µg/mL: MEC [1] | MIC [4] | MIC [6] | MIC [9] | MIC [10]
0.5 µg/mL: MEC [3]
